# In paper PMC8707700, “Ru(III) Complexes with Lonidamine-Modified Ligands” (International Journal of Molecular Sciences, 2021):
# Like-named read-outs stand apart in the source and are kept apart here.
# Columns and labels:
# SW480 = experiment: Antiproliferative activity, MTT assay; assay type: cell-based, human; conditions: read-out: IC50, µM SW480
# Procedure: (§1) The antiproliferative activity of new ligands and complexes was determined against human cell lines, including colon adenocarcinoma SW480, breast adenocarcinoma MCF-7, lung adenocarcinoma A549, neuroblastoma SHSY5Y, and non-tumourigenic HaCaT (Table 4). In general, complexes were more cytotoxic compared to ligands, lonidamine, and, in some cases, cisplatin. […] We chose this compound and the synthetically accessible complex 16 for mechanistic studies.
# (§2) The antiproliferative activity was studied by MTT assays as published previously. For flow cytometry studies, cells were plated into 6-well plates (Eppendorf, Germany; 4 × 10^5 cells in 2 mL of DMEM) and incubated for 24 h. Solutions of complexes in DMSO were prepared immediately prior to the day of the experiments. Cells were treated with either 20 µM of cisplatin, 50 µM of 16, or 20 µM of 20. Concentrations corresponded to two-fold IC50 values based on MTT assays. Cells were incubated for 24 h, pooled, washed with cold PBS, and resuspended in DMEM. Aliquots of cells were processed as recommended in the Muse Annexin V&Dead Cell Kit or Muse Caspase-3/7 Kit (Luminex). Measurements were carried out on a Muse Cell Analyser, Luminex corp., TX, USA.
# HaCaT = experiment: Antiproliferative activity, MTT assay; assay type: cell-based, human; conditions: read-out: IC50 HaCaT
# Procedure: as §1, §2
# A549 = experiment: Antiproliferative activity, MTT assay; assay type: cell-based, human; conditions: read-out: IC50, µM A549
# Procedure: as §1, §2
# MCF-7 = experiment: Antiproliferative activity, MTT assay; assay type: cell-based, human; conditions: read-out: IC50, µM MCF-7
# Procedure: as §1, §2
# [1] = Cyclic voltammetry (redox potentials); assay type: physicochemical; conditions: Pt and GC electrodes, CH3CN and CH2Cl2, any applied potential
# Procedure: The redox behaviour of ligand 10 and complexes 15–20 was studied on Pt and glassy carbon (GC) electrodes in CH3CN and CH2Cl2.
# All electrochemical measurements were carried out under argon at room temperature. Cyclic voltammetry (CV) experiments were performed in KO264 PAR three-electrode microcells in CH3CN solution with 0.05 M of Bu4NBF4 as a supporting electrolyte using a IPC-Win potentiostat. The number of transferred electrons was determined by comparing to the height of the […] wave for the same concentration. A glassy carbon (GC) working electrode (diameter 2 mm), a platinum wire auxiliary electrode, and an aqueous Ag/AgCl/KCl (sat.) reference electrode was used. Solvents were routinely distilled and dried prior to use.
# HCT116 cells = experiment: Annexin V/7-AAD flow cytometry (Muse Annexin V & Dead Cell Kit); assay type: cell-based; conditions: HCT116, 24 h, 2xIC50; one representative experiment
# Procedure: Mechanisms of cell death, that is, Annexin V/7-AAD reactivity and caspase 3/7 activation, were determined for 16 and 20 in HCT116 cells using the Muse® Annexin V & Dead Cell Kit (Luminex corp., Austin, TX, USA) and flow cytometry. Cells were incubated with 16, 20, or cisplatin (reference drug) for 24 h at concentrations corresponding to 2xIC50 values (obtained in MTT assays; Table 4). The percentages of Annexin V-positive cells in response to 16 and 20 were higher than cisplatin (Figure 8). Complex 20 with the C12 linker induced Annexin V positivity slightly more efficiently than 16 with the C3 linker (27.4 ± 2.1% vs. 19.7 ± 0.6%).
# as §2
# SH-SY5Y = experiment: Antiproliferative activity, MTT assay; assay type: cell-based, human; conditions: 72 h exposure, mean ± SD
# Procedure: as §1, §2
# [2] = Stability of Ru(III) complexes in phosphate buffer by UV-vis spectrophotometry; assay type: physicochemical; conditions: 20 mM phosphate buffer pH 7.4, 100 mM NaCl, 37 °C; mean ± SD, three experiments
# Procedure: The stability of Ru(III) complexes (15–20) was investigated in a solution resembling physiological conditions (20 mM of phosphate buffer, pH 7.4, and 100 mM of NaCl at 37 °C) by UV-vis spectrophotometry (Table 1). The half-transformation time t1/2 was calculated based on changes in the electronic absorption spectrum (Figure S1) and defined as the value of t at the Alin/2 point. ΔA(t) was plotted against λmax; the initial section was approximated as a linear function.
# The stability of Ru(III) complexes was studied by electron absorption spectroscopy in 20 mM of phosphate buffer, pH 7.4, and 100 mM of NaCl. The working solution (2 mL, 200 μM complex) was prepared by diluting 10 μL of the original 40 mM solution in DMSO and 1.99 mL of phosphate buffer. UV-vis spectra were recorded every 60 s in the range of 280–600 nm at 37 °C. The half-transformation time was t1/2. For λmax, ΔA(t) was plotted, where ΔA = A0–Ai, an initial section, was approximated as a linear function. At ΔAline./2 point calculated as t = t1/2.
# [3] = Lipophilicity, shake-flask method water/n-octanol; assay type: physicochemical; conditions: UV-vis, mean ± SD
# Procedure: The lipophilicity of complexes 15–20 was studied using a standard shake-flask method in a mixture of water/n-octanol. For the quantification of compounds in the water phase, UV-vis spectrophotometry was used. […] Among other complexes, as expected, 20 was the most lipophilic (Table 1).
# N-octanol was saturated with water and with water saturated with n-octanol; mixture400 mL of n-octanol (water) and 100 mL of water (n-octanol) was stirred for 24 h; and then fractions were separated. The sample of the complex was dissolved in n-octanol and a series of solutions in octanol (300, 250, 3 × 200, 150, 100, and 50 μM) was prepared. Absorption spectra were recorded and the calibration curve for maximum absorption was plotted. From 200 μM solutions, the mixtures with water were prepared (1:1, 1:2, 2:1 v/v) and shaken for 15 min. The organic phase was separated by centrifugation. The concentration of the complex in n-octanol was determined from the calibration curve and lipophilicity (logP) was calculated as log P = log [(C0–Caq)/Caq].
Molecule,melting point [°C],"IC50 (SW480; Homo sapiens, SW480, 72 h) [µM]","IC50 (HaCaT; Homo sapiens, HaCaT, 72 h) [µM]","IC50 (A549; Homo sapiens, A549, 72 h) [µM]","IC50 (MCF-7; Homo sapiens, MCF7, 72 h) [µM]","IC50 (SW480; MTT, 72 h exposure, mean ± SD) [µM]",IC50 (SH-SY5Y) [µM],"IC50 (A549; MTT, 72 h exposure, mean ± SD) [µM]","IC50 (MCF-7; MTT, 72 h exposure, mean ± SD) [µM]",t1/2 (half-transformation time) [2] [min],other results
"O=C(NCCn1ccnc1)c1nn(Cc2ccc(Cl)cc2Cl)c2ccccc12 [Compound 9, N-(2-(1H-Imidazol-1-yl)ethyl)-1-(2,4-dichlorobenzyl)-1H-indazole-3-carboxamide]",120 to 121,48 ± 10,23 ± 2,50 ± 16,35 ± 6,–,–,–,–,–,–
"O=C(NCCCn1ccnc1)c1nn(Cc2ccc(Cl)cc2Cl)c2ccccc12 [Compound 10, N-(3-(1H-Imidazol-1-yl)propyl)-1-(2,4-dichlorobenzyl)-1H-indazole-3-carboxamide]",121 to 122,> 90,39 ± 4,> 90,> 90,–,–,–,–,–,redox transitions of the ligand [1]: redox transitions were not observed
"O=C(NCCCCn1ccnc1)c1nn(Cc2ccc(Cl)cc2Cl)c2ccccc12 [Compound 11, N-(4-(1H-Imidazol-1-yl)butyl)-1-(2,4-dichlorobenzyl)-1H-indazole-3-carboxamide]",98 to 100,28 ± 8,45 ± 3,25 ± 7,22 ± 6,–,–,–,–,–,–
"O=C(NCCCCCCn1ccnc1)c1nn(Cc2ccc(Cl)cc2Cl)c2ccccc12 [Compound 12, N-(6-(1H-Imidazol-1-yl)hexyl)-1-(2,4-dichlorobenzyl)-1H-indazole-3-carboxamide]",–,16 ± 6,40 ± 4,24 ± 10,17 ± 2.5,–,–,–,–,–,–
"O=C(NCCCCCCCCn1ccnc1)c1nn(Cc2ccc(Cl)cc2Cl)c2ccccc12 [Compound 13, N-(8-(1H-Imidazol-1-yl)octyl)-1-(2,4-dichlorobenzyl)-1H-indazole-3-carboxamide]",–,> 90,45 ± 2,15 ± 6,10 ± 2,–,–,–,–,–,–
"O=C(NCCCCCCCCCCCCn1ccnc1)c1nn(Cc2ccc(Cl)cc2Cl)c2ccccc12 [Compound 14, N-(12-(1H-Imidazol-1-yl)dodecyl)-1-(2,4-dichlorobenzyl)-1H-indazole-3-carboxamide]",86 to 88,8.4 ± 1.6,–,15 ± 2.2,20.8 ± 4.7,–,–,–,–,–,–
"N.N.[Cl][Pt][Cl] [cisplatin, reference compound]",–,–,–,–,–,21.7 ± 0.5,9.5 ± 0.1,23 ± 6.5,> 30,–,"early apoptosis (Annexin V/7-AAD) (HCT116 cells): 4%; late apoptosis (Annexin V/7-AAD) (HCT116 cells): 8%; live cells (Annexin V/7-AAD) (HCT116 cells): 88%; necrosis (Annexin V/7-AAD) (HCT116 cells): 0%; IC50 (HaCaT; MTT, 72 h exposure, non-tumourigenic cells, mean ± SD): 10 ± 5 µM"
"O=C(O)c1nn(Cc2ccc(Cl)cc2Cl)c2ccccc12 [lonidamine, 1-(2,4-dichlorobenzyl)-1H-indazole-3-carboxylic acid]",–,–,–,–,–,–,–,–,–,–,"IC50 (SW480; Homo sapiens, SW480, MTT, 72 h exposure, mean ± SD): > 90 µM; IC50 (SH-SY5Y; Homo sapiens, SH-SY5Y): > 30 µM; IC50 (HaCaT; Homo sapiens, HaCaT, MTT, 72 h exposure, non-tumourigenic cells, mean ± SD): 3 ± 1 µM; IC50 (A549; Homo sapiens, A549, MTT, 72 h exposure, mean ± SD): > 90 µM; IC50 (MCF-7; Homo sapiens, MCF7, MTT, 72 h exposure, mean ± SD): 30 ± 10 µM"
Na[trans-Ru(DMSO)(C20H17Cl2N5O)Cl4] [Compound 15],–,–,–,–,–,21.4 ± 1.8,25.8 ± 4.5,> 30,20.4 ± 0.1,6 ± 0.333,–
Na[trans-Ru(DMSO)(C22H21Cl2N5O)Cl4] [Compound 17],–,–,–,–,–,21 ± 1.8,27.7 ± 3.3,> 30,> 30,6 ± 0.333,–
Na[trans-Ru(DMSO)(C24H25Cl2N5O)Cl4] [Compound 18],–,–,–,–,–,19.6 ± 3.9,5.1 ± 2.5,12.9 ± 1,22 ± 0.7,10.8 ± 0.5,Log P [3]: 0.6 ± 0.1
Na[trans-Ru(DMSO)(C26H29Cl2N5O)Cl4] [Compound 19],–,–,–,–,–,9.3 ± 0.1,2.64 ± 1.5,5.9 ± 2.6,17.1 ± 0.3,23.17 ± 1.17,–
